# In article PMC8402075, “Synthesis and Antiplasmodial Activity of Bisindolylcyclobutenediones” (Molecules, 2021):
# “Also recorded” adds a separate entry of the source.
# Tested on: P. falciparum (NF54-luc strain) erythrocytic stages
# Assay: Luciferase-based viability screening for antiplasmodial activity
# Assay type: cell-based, Plasmodium falciparum
# Conditions: Plasmodium falciparum, NF54, 48 h, read-out: IC50 [µM], concentration for 50% inhibition of P. falciparum (NF54-luc strain) erythrocytic stages
# Procedure: All synthesized new bisindolylcyclobutenediones 2a–2ar and the related bisindolylmaleimide 8 [37] were screened for inhibition of erythrocytic stages of Plasmodium falciparum employing a bioluminescence-based viability assay on transgenic parasites that constitutively express luciferase (PfNF54-luc). Initially, the compounds were evaluated in single-dose test runs (3 µM). If >20% viability inhibition was observed, dose-response curves were generated and IC50 values were calculated (Table 1). […] The bisindolylmaleimide 8 [37] inhibited the parasites in a single-digit micromolar concentration, similar to many of the bisindolylcyclobutenediones in the study. Because the bisindolylcyclobutenediones 2 display a higher degree of structural novelty, only this compound class was further pursued for its antiplasmodial activity. […] These structural features were considered unfavorable for orientations as illustrated in Figure 2 with 2a and Pfmap-2, PfPK5, PfCDPK2, Pflammer, and PfPK7, respectively. However, a structure generated for 2a in PfGSK-3 in which the indole units are oriented perpendicular to each other (Figure 2a) was considered compatible with the indicated substitution pattern. Consequently, the potent antiplasmodial derivatives 2k, 2ad, and 2ae were tested in a kinase Glo assay for inhibition of recombinant PfGSK-3. […] For the compounds with particularly potent antiplasmodial activity, cytotoxicity was also determined using the human cell line THP-1 to assess selectivity with respect to parasite cells (Table 2).
# Screening for the antiplasmodial activity of test compounds was performed by luciferase-based viability assays as reported previously. In brief, asexual erythrocytic stages of transgenic NF54-luc P. falciparum were cultured as described elsewhere. Parasite cultures with parasitaemia of 0.5–1% were incubated in the presence of 3 µM test compounds for 48 h. After the subsequent addition of Bright-Glo substrate solution (Promega, Madison, WI), the resulting luminescence was measured. Untreated cultures (0.01% DMSO) were used as negative controls. Experiments were performed in triplicate and were repeated as a whole at least twice. Blasticidin (Sigma-Aldrich, St. Louis, MO, USA) was included as a positive control.
row,Structure (SMILES),IC50 [µM]
1,"COc1ccc2[nH]cc(-c3c(-c4c[nH]c5ccc(Br)cc45)c(=O)c3=O)c2c1 [2ad, 3-(5-Bromo-1H-indol-3-yl)-4-(5-methoxy-1H-indol-3-yl)cyclobut-3-ene-1,2-dione]",0.47
2,"COc1ccc2[nH]cc(-c3c(-c4c[nH]c5ccc(I)cc45)c(=O)c3=O)c2c1 [2ae, 3-(5-Iodo-1H-indol-3-yl)-4-(5-methoxy-1H-indol-3-yl)cyclobut-3-en-1,2-dione]",0.64
3,"O=c1c(-c2c[nH]c3ccccc23)c(-c2c[nH]c3ccc(Br)cc23)c1=O [2b, 3-(5-Bromo-1H-indol-3-yl)-4-(1H-indol-3-yl)cyclobut-3-ene-1,2-dione]",3.02
4,"O=c1c(-c2c[nH]c3ccccc23)c(-c2c(-c3ccccc3)[nH]c3ccccc23)c1=O [2h, 3-(1H-Indol-3-yl)-4-(2-phenyl-1H-indol-3-yl)cyclobut-3-ene-1,2-dione]",6.38
5,"CN(C)CCCn1cc(-c2c(-c3c[nH]c4ccccc34)c(=O)c2=O)c2ccccc21 [2k, 3-{1-[3-(Dimethylamino)propyl]-1H-indol-3-yl}-4-(1H-indol-3-yl)cyclobut-3-ene-1,2-dione]",0.376
6,"Cn1cc(-c2c(-c3c[nH]c4ccccc34)c(=O)c2=O)c2ccccc21 [2q, 3-(1H-Indol-3-yl)-4-(1-methyl-1H-indol-3-yl)cyclobut-3-ene-1,2-dione]",2.97
7,"O=c1c(-c2c[nH]c3ccccc23)c(-c2c[nH]c3ccc(I)cc23)c1=O [2r, 3-(1H-Indol-3-yl)-4-(5-iodo-1H-indol-3-yl)cyclobut-3-ene-1,2-dione]",0.915
8,"Cn1cc(-c2c(-c3c(-c4ccccc4)[nH]c4ccccc34)c(=O)c2=O)c2ccccc21 [2u, 3-(1-Methyl-1H-indol-3-yl)-4-(2-phenyl-1H-indol-3-yl)cyclobut-3-ene-1,2-dione]",1.72
9,"Cc1[nH]c2ccccc2c1-c1c(-c2cn(C)c3ccccc23)c(=O)c1=O [2y, 3-(1-Methyl-1H-indol-3-yl)-4-(2-methyl-1H-indol-3-yl)cyclobut-3-ene-1,2-dione]",2.67

# Same assay, conditions: Plasmodium falciparum, NF54, 48 h, read-out: Inhibition at 3 µM [%]
row,Structure (SMILES),inhibition at 3 µM [%]
1,"COc1ccc2[nH]cc(-c3c(-c4c[nH]c5ccc(Br)cc45)c(=O)c3=O)c2c1 [2ad, 3-(5-Bromo-1H-indol-3-yl)-4-(5-methoxy-1H-indol-3-yl)cyclobut-3-ene-1,2-dione]",98.8 ± 0.7
2,"CN(C)CCCn1cc(-c2c(-c3c[nH]c4ccccc34)c(=O)c2=O)c2ccccc21 [2k, 3-{1-[3-(Dimethylamino)propyl]-1H-indol-3-yl}-4-(1H-indol-3-yl)cyclobut-3-ene-1,2-dione]",98.1 ± 1.8

# Same assay, conditions: Plasmodium falciparum, NF54, read-out: IC50, Pf [µM]
row,Structure (SMILES),IC50 [µM]
1,"COc1ccc2[nH]cc(-c3c(-c4c[nH]c5ccc(Br)cc45)c(=O)c3=O)c2c1 [2ad, 3-(5-Bromo-1H-indol-3-yl)-4-(5-methoxy-1H-indol-3-yl)cyclobut-3-ene-1,2-dione]",0.47
2,"COc1ccc2[nH]cc(-c3c(-c4c[nH]c5ccc(I)cc45)c(=O)c3=O)c2c1 [2ae, 3-(5-Iodo-1H-indol-3-yl)-4-(5-methoxy-1H-indol-3-yl)cyclobut-3-en-1,2-dione]",0.64
3,"O=c1c(-c2c[nH]c3ccccc23)c(-c2c[nH]c3ccc(Br)cc23)c1=O [2b, 3-(5-Bromo-1H-indol-3-yl)-4-(1H-indol-3-yl)cyclobut-3-ene-1,2-dione]",3.02
4,"O=c1c(-c2c[nH]c3ccccc23)c(-c2c(-c3ccccc3)[nH]c3ccccc23)c1=O [2h, 3-(1H-Indol-3-yl)-4-(2-phenyl-1H-indol-3-yl)cyclobut-3-ene-1,2-dione]",6.38
5,"CN(C)CCCn1cc(-c2c(-c3c[nH]c4ccccc34)c(=O)c2=O)c2ccccc21 [2k, 3-{1-[3-(Dimethylamino)propyl]-1H-indol-3-yl}-4-(1H-indol-3-yl)cyclobut-3-ene-1,2-dione]",0.38
6,"Cn1cc(-c2c(-c3c[nH]c4ccccc34)c(=O)c2=O)c2ccccc21 [2q, 3-(1H-Indol-3-yl)-4-(1-methyl-1H-indol-3-yl)cyclobut-3-ene-1,2-dione]",2.97
7,"O=c1c(-c2c[nH]c3ccccc23)c(-c2c[nH]c3ccc(I)cc23)c1=O [2r, 3-(1H-Indol-3-yl)-4-(5-iodo-1H-indol-3-yl)cyclobut-3-ene-1,2-dione]",0.92
8,"Cn1cc(-c2c(-c3c(-c4ccccc4)[nH]c4ccccc34)c(=O)c2=O)c2ccccc21 [2u, 3-(1-Methyl-1H-indol-3-yl)-4-(2-phenyl-1H-indol-3-yl)cyclobut-3-ene-1,2-dione]",1.72
9,"Cc1[nH]c2ccccc2c1-c1c(-c2cn(C)c3ccccc23)c(=O)c1=O [2y, 3-(1-Methyl-1H-indol-3-yl)-4-(2-methyl-1H-indol-3-yl)cyclobut-3-ene-1,2-dione]",2.67

# Same assay, conditions: Plasmodium falciparum, NF54, read-out: IC50 P. falciparum (quoted in the discussion)
row,Structure (SMILES),IC50 [µM]
1,"O=c1c(-c2c[nH]c3ccccc23)c(-c2c[nH]c3ccc(Br)cc23)c1=O [2b, 3-(5-Bromo-1H-indol-3-yl)-4-(1H-indol-3-yl)cyclobut-3-ene-1,2-dione]",3

# Target: T1, recombinant PfGSK-3 (Plasmodium falciparum, UniProt O77344)
# T1 construct: 6xHis (N, cleaved yes); GST (N, cleaved yes); made in house; host or cells: E. coli BL21 (DE3)-RIL
# T1 sequence (O77344 entry or part of it): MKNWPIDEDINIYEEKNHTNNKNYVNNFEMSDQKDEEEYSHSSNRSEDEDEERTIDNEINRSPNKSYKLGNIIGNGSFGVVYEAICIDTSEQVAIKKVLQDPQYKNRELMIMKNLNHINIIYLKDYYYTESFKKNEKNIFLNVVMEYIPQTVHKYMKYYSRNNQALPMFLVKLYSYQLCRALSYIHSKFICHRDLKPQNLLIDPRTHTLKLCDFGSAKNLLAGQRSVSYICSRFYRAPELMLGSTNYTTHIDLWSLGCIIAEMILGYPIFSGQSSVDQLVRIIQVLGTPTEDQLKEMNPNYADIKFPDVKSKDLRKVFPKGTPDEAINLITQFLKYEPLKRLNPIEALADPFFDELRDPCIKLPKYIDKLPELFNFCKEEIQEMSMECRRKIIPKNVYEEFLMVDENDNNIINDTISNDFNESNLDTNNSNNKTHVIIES
# Assay: PfGSK-3 inhibition assay (KinaseGlo Plus)
# Assay type: biochemical
# Conditions: tested up to a concentration of 10 µM, kinase Glo assay
# Procedure: PfGSK-3 was produced as published before. In brief, PfGSK-3 was cloned into pOPIN J expression vector [57] which was transformed into E. coli BL21 (DE3)-RIL. Expression of recombinant 6xHis-GST-PfGSK-3 was induced by incubation with isopropyl β-D-1-thiogalactopyranoside (IPTG). The recombinant protein was purified by affinity chromatography using glutathione resin and elution by digestion with human rhinovirus 3C protease.
# The PfGSK-3 inhibition assay was carried out using the commercial KinaseGlo Plus assay (KinaseGlo Plus, Promega) as described before. In brief, the kinase and a corresponding substrate (GS-1 substrate, Promega) in the presence of ATP were used to perform substrate phosphorylation. Subsequently, luminescence is generated utilizing luciferase which is a component of the KinaseGlo Reagent. The intensity of the luminescence signal corresponds to the amount of remaining ATP in the reaction mixture. For the investigation, potential kinase inhibitors were dissolved in DMSO and were added directly to the kinase reaction. The final DMSO concentration in the kinase reaction was at most 1%. As the negative control, 1% DMSO without test compound was measured. A control reaction without kinase was measured simultaneously. The difference between kinase reaction and control reaction corresponds to the kinase activity.
row,Structure (SMILES),Inhibition of recombinant PfGSK-3
1,"COc1ccc2[nH]cc(-c3c(-c4c[nH]c5ccc(Br)cc45)c(=O)c3=O)c2c1 [2ad, 3-(5-Bromo-1H-indol-3-yl)-4-(5-methoxy-1H-indol-3-yl)cyclobut-3-ene-1,2-dione]",failed to show kinase inhibitory activity; also recorded: inactive; also recorded: did not inhibit PfGSK-3
2,"COc1ccc2[nH]cc(-c3c(-c4c[nH]c5ccc(I)cc45)c(=O)c3=O)c2c1 [2ae, 3-(5-Iodo-1H-indol-3-yl)-4-(5-methoxy-1H-indol-3-yl)cyclobut-3-en-1,2-dione]",failed to show kinase inhibitory activity; also recorded: inactive; also recorded: did not inhibit PfGSK-3
3,"CN(C)CCCn1cc(-c2c(-c3c[nH]c4ccccc34)c(=O)c2=O)c2ccccc21 [2k, 3-{1-[3-(Dimethylamino)propyl]-1H-indol-3-yl}-4-(1H-indol-3-yl)cyclobut-3-ene-1,2-dione]",failed to show kinase inhibitory activity; also recorded: inactive; also recorded: did not inhibit PfGSK-3

# Tested on: human THP-1 cell line
# Assay: Cytotoxicity assay on human THP-1 cell line (Alamar Blue)
# Assay type: cell-based
# Conditions: THP-1 versus P. falciparum NF54-luc
# Procedure: The cytotoxicity of selected antiplasmodial bisindolylcyclobutenediones was determined against THP-1 cells following a protocol described previously. In brief, THP-1 cells were incubated with test compounds in serial compound dilutions in the presence of 0.01% DMSO at 37 °C. After 48 h, Alamar Blue was added, and after 4 h the fluorescence was read (λex = 544 nm, λem = 590 nm) using a microplate reader. THP-1 cells in wells containing medium plus 0.01% DMSO served as negative controls. Experiments were performed in triplicate and were repeated as a whole at least twice.
row,Structure (SMILES),"Selectivity Index (SI) = IC50, THP-1/IC50, Pf"
1,"COc1ccc2[nH]cc(-c3c(-c4c[nH]c5ccc(Br)cc45)c(=O)c3=O)c2c1 [2ad, 3-(5-Bromo-1H-indol-3-yl)-4-(5-methoxy-1H-indol-3-yl)cyclobut-3-ene-1,2-dione]",30
2,"COc1ccc2[nH]cc(-c3c(-c4c[nH]c5ccc(I)cc45)c(=O)c3=O)c2c1 [2ae, 3-(5-Iodo-1H-indol-3-yl)-4-(5-methoxy-1H-indol-3-yl)cyclobut-3-en-1,2-dione]",23
3,"O=c1c(-c2c[nH]c3ccccc23)c(-c2c[nH]c3ccc(Br)cc23)c1=O [2b, 3-(5-Bromo-1H-indol-3-yl)-4-(1H-indol-3-yl)cyclobut-3-ene-1,2-dione]",7.6
4,"O=c1c(-c2c[nH]c3ccccc23)c(-c2c(-c3ccccc3)[nH]c3ccccc23)c1=O [2h, 3-(1H-Indol-3-yl)-4-(2-phenyl-1H-indol-3-yl)cyclobut-3-ene-1,2-dione]",1.0
5,"CN(C)CCCn1cc(-c2c(-c3c[nH]c4ccccc34)c(=O)c2=O)c2ccccc21 [2k, 3-{1-[3-(Dimethylamino)propyl]-1H-indol-3-yl}-4-(1H-indol-3-yl)cyclobut-3-ene-1,2-dione]",34
6,"Cn1cc(-c2c(-c3c[nH]c4ccccc34)c(=O)c2=O)c2ccccc21 [2q, 3-(1H-Indol-3-yl)-4-(1-methyl-1H-indol-3-yl)cyclobut-3-ene-1,2-dione]",4.7
7,"O=c1c(-c2c[nH]c3ccccc23)c(-c2c[nH]c3ccc(I)cc23)c1=O [2r, 3-(1H-Indol-3-yl)-4-(5-iodo-1H-indol-3-yl)cyclobut-3-ene-1,2-dione]",7.9
8,"Cn1cc(-c2c(-c3c(-c4ccccc4)[nH]c4ccccc34)c(=O)c2=O)c2ccccc21 [2u, 3-(1-Methyl-1H-indol-3-yl)-4-(2-phenyl-1H-indol-3-yl)cyclobut-3-ene-1,2-dione]",1.2
9,"Cc1[nH]c2ccccc2c1-c1c(-c2cn(C)c3ccccc23)c(=O)c1=O [2y, 3-(1-Methyl-1H-indol-3-yl)-4-(2-methyl-1H-indol-3-yl)cyclobut-3-ene-1,2-dione]",3.1

# Same assay, conditions: human THP-1 cell line, 48 h, Alamar Blue
row,Structure (SMILES),IC50 [µM]
1,"COc1ccc2[nH]cc(-c3c(-c4c[nH]c5ccc(Br)cc45)c(=O)c3=O)c2c1 [2ad, 3-(5-Bromo-1H-indol-3-yl)-4-(5-methoxy-1H-indol-3-yl)cyclobut-3-ene-1,2-dione]",14.1
2,"COc1ccc2[nH]cc(-c3c(-c4c[nH]c5ccc(I)cc45)c(=O)c3=O)c2c1 [2ae, 3-(5-Iodo-1H-indol-3-yl)-4-(5-methoxy-1H-indol-3-yl)cyclobut-3-en-1,2-dione]",14.5
3,"O=c1c(-c2c[nH]c3ccccc23)c(-c2c[nH]c3ccc(Br)cc23)c1=O [2b, 3-(5-Bromo-1H-indol-3-yl)-4-(1H-indol-3-yl)cyclobut-3-ene-1,2-dione]",23
4,"O=c1c(-c2c[nH]c3ccccc23)c(-c2c(-c3ccccc3)[nH]c3ccccc23)c1=O [2h, 3-(1H-Indol-3-yl)-4-(2-phenyl-1H-indol-3-yl)cyclobut-3-ene-1,2-dione]",6.37
5,"CN(C)CCCn1cc(-c2c(-c3c[nH]c4ccccc34)c(=O)c2=O)c2ccccc21 [2k, 3-{1-[3-(Dimethylamino)propyl]-1H-indol-3-yl}-4-(1H-indol-3-yl)cyclobut-3-ene-1,2-dione]",12.8
6,"Cn1cc(-c2c(-c3c[nH]c4ccccc34)c(=O)c2=O)c2ccccc21 [2q, 3-(1H-Indol-3-yl)-4-(1-methyl-1H-indol-3-yl)cyclobut-3-ene-1,2-dione]",14
7,"O=c1c(-c2c[nH]c3ccccc23)c(-c2c[nH]c3ccc(I)cc23)c1=O [2r, 3-(1H-Indol-3-yl)-4-(5-iodo-1H-indol-3-yl)cyclobut-3-ene-1,2-dione]",7.25
8,"Cn1cc(-c2c(-c3c(-c4ccccc4)[nH]c4ccccc34)c(=O)c2=O)c2ccccc21 [2u, 3-(1-Methyl-1H-indol-3-yl)-4-(2-phenyl-1H-indol-3-yl)cyclobut-3-ene-1,2-dione]",2.1
9,"Cc1[nH]c2ccccc2c1-c1c(-c2cn(C)c3ccccc23)c(=O)c1=O [2y, 3-(1-Methyl-1H-indol-3-yl)-4-(2-methyl-1H-indol-3-yl)cyclobut-3-ene-1,2-dione]",8.4
